Values after ≈ are worked out from the molar mass of the structure shown. Like-named read-outs stand apart in the source and are kept apart here. One block for each compound: values may come before it. No end group written: not given here.
Key:
[1] = test system: Salmonella choleraesuis Strand 75
[2] = test system: Salmonella choleraesuis Strand 74
Fusarium oxysporum = experiment: MIC and MBC analysis against the filamentous fungus Fusarium oxysporum; assay type: cell-based
Aerococcus viridian = experiment: Bacteriostatic (MIC) and bactericidal (MBC) analysis against Aerococcus viridian; assay type: cell-based
Description: (§1) Monodoncin was tested for its antibacterial activities against various Gram (−) bacteria, including E. coli, Vibrio harveyi, Vibrio alginolyticus, and Salmonella cholesaesuis, various Gram (+) bacteria, such as Aerococcus viridian, and filamentous fungi, such as Fusarium pisi.

Fusarium pisi = experiment: MIC and MBC analysis against the filamentous fungus Fusarium pisi; assay type: cell-based
Description: as §1

E. coli [3] = experiment: microbe, parasite or virus in culture
Description: as §1
(§2) The bacteria were cultured under conventional methods. For example, E. coli strain was cultured in LB, 37° C. The marine microorganisms that are pathogenic for shrimp, such as Vibrio harveyi and Vibrio alginolyticus, were cultured in trypticase soy broth/agar (1.5% NaCl), 25° C.

Vibrio alginolyticus = experiment: microbe, parasite or virus in culture
Description: as §1, §2

Vibrio harveyi [4] = experiment: microbe, parasite or virus in culture
Description: as §1, §2

Vibrio harveyi [5] = experiment: Mortality of tiger shrimp after Vibrio harveyi challenge (FIG. 5); assay type: in vivo, Penaeus monodon
Description: (-⋄-): PBS control (negative control); (-▪-): Vibrio harveyi challenge (positive control); (-▴-): cecropin+Vibrio harveyi (non-monodoncin treatment group); (-●-): monodoncin+Vibrio harveyi (monodoncin treatment group).
Vibrio harveyi is a gram-negative marine bacterium that is in the natural living environment of the tiger shrimp. A suspension of the microorganism […] containing 10^5 cells was used for each tiger shrimp. The suspension was injected into the shrimp abdominal muscle. Hemocytes were collected as Example 1 at different times (from 0 to 72 hours) post-injection. Unchallenged animals were used as controls.

E. coli [6] = experiment: SEM analysis of interaction of monodoncin with E. coli; assay type: cell-based, Escherichia coli; settings: monodoncin 10 μM, 12 hrs of treatment
Description: Monodoncin at […] was used to treat E. Coli and Vibrios, and the pathogens prior to and after the treatment were monitored under Scanning Electron Microscope (SEM) and Atomic Force Microscope (AFM).
Scanning electron microscopy (SEM) was conducted by incubating […] of E. coli (109 C.F.U./ml) with or without 50 μl monodoncin (10000 μM) at 37° C. for 1 h, 3 h, 6 h, and 12 h. Three milliliters of each of the bacterial suspensions (at various time frames) were fixed by adding 1 ml of 6% glutaraldehyde in 0.1 M sodium cacodylate trihydrate buffer (pH 6.8). After fixation for 1 h at […], the bacterial suspensions were pelleted, the used fixative was removed, 2 ml of the new fixative were added, and the bacteria were incubated for 5 min at […] Two additional 5-min fixations were conducted, followed by addition of 2 ml of 1% osmium tetroxide in 0.1 M cacodylate buffer, and the fixation was allowed to proceed for 30 min at […] The osmium tetroxide was removed, and the bacterial suspensions were washed in 2 ml of 0.1 M cacodylate buffer. […] The SEM mounts were then sputter coated with gold (Edwards S150A sputter coater; Edwards High Vacuum, Crawley, West Sussex, England) and analyzed on a Hitachi H300-3010 scanning image accessory electron microscope.

Compound: CC1(C)S[C@@H]2[C@H](NC(=O)[C@H](N)c3ccc(O)cc3)C(=O)N2[C@H]1C(=O)O [Amoxicillin, amoxicillin]
MIC ([1]; Strand 75, amoxicillin alone): >64 µg
MIC ([2]; Strand 74, amoxicillin alone): >64 µg

Compound: CN(C)[C@@H]1C(O)=C(C(N)=O)C(=O)[C@@]2(O)C(O)=C3C(=O)c4c(O)cccc4[C@@](C)(O)[C@H]3C[C@@H]12 [Tetracycline, tetracycline]
MBC (Fusarium oxysporum): 500 µM (≈ 222 µg/mL)
MIC (Fusarium oxysporum): 500 µM (≈ 222 µg/mL)
MBC (Aerococcus viridian): 300 µM (≈ 133 µg/mL)
MIC (Aerococcus viridian): 30 µM (≈ 13.3 µg/mL)
MBC (Fusarium pisi; Fusarium vanettenii): > 500 µM
MIC (Fusarium pisi; Fusarium vanettenii): 300 µM (≈ 133 µg/mL)
MBC (E. coli [3]; Escherichia coli): 403 µM (≈ 179 µg/mL)
MBC (Vibrio alginolyticus; Vibrio alginolyticus): > 202 µM
MIC (Vibrio alginolyticus; Vibrio alginolyticus): 25.2 µM (≈ 11.2 µg/mL)
MBC (Vibrio harveyi [4]; Vibrio harveyi): 403 µM (≈ 179 µg/mL)
MIC (Vibrio harveyi [4]; Vibrio harveyi): 6.3 µM (≈ 2.8 µg/mL)

Compound: Cecropin
MBC ([1]; Strand 75, peptide alone): >31.2 mg/L
MIC ([1]; Strand 75, peptide alone): 31.2 mg/L
MBC ([2]; Strand 74, peptide alone): 31.2 mg/L
MIC ([2]; Strand 74, peptide alone): 16.5 mg/L

MIC (E. coli [3]): 450 µM
MIC (Vibrio alginolyticus): 500 µM
MIC (Vibrio harveyi [4]): 200 µM
Compound: GWGSFFKKAAHVGKHVGKAALTHYL-NH2 (C-terminus assumed) [Pleurocidin, pleurocidin]
MBC (E. coli [3]): 500 µM
MBC (Vibrio alginolyticus): >500 µM
MBC (Vibrio harveyi [4]): 200 µM

Compound: QGYQGGYTRPFPRPPYGGGYHPVPVCTSCHRLSPLQARACCRQLGRCCDAKQTYG (cysteines drawn unpaired) [Monodoncin]
mortality rate relative to that in the untreated group (Vibrio harveyi [5]): 40%
reduction of tiger shrimp mortality (Vibrio harveyi [5]): at least 40%
number of bacteria in the culture (E. coli [6]): significantly reduced

Compound: magainins
MBC (Fusarium oxysporum): 1 µM
MIC (Fusarium oxysporum): 1 µM
MBC (Aerococcus viridian): 5 µM
MIC (Aerococcus viridian): 1 µM
MBC (Fusarium pisi): 1 µM
MIC (Fusarium pisi): 1 µM
MBC (E. coli [3]; E. coli): 70 µM
MIC (E. coli [3]; E. coli): 40 µM
MBC (Vibrio alginolyticus; Vibrio alginolyticus): 300 µM
MIC (Vibrio alginolyticus; Vibrio alginolyticus): 150 µM
MBC (Vibrio harveyi [4]; Vibrio harveyi): 30 µM
MIC (Vibrio harveyi [4]; Vibrio harveyi): 30 µM

From US7670836B2, “Antimicrobial peptide isolated from Penaeus monodon” (priority 2003, dated 2010)
